Results as given in ChEMBL document CHEMBL3351964, “2-Aminopyrimidin-4(1H)-one as the novel bioisostere of urea: discovery of novel and potent CXCR2 antagonists” (Bioorg Med Chem Lett, 2014).
≈ marks a conversion by molar mass, not a printed value.

Experiments:
Assay type in all cases: ADME
[1] = Stability of the compound in simulated gastric fluid after 24 hrs at 37 degC; conditions: simulated gi fluid
[2] = Solubility of the compound in fasted simulated intestinal fluid after 4 hrs
[3] = Passive permeability of the compound by PAMPA assay; conditions: read-out: permeability

Stability [1]: Stable | solubility at 4 h [2]: 33 µg/mL (≈ 82.5 µM) | Papp [3]: 37 ×10⁻⁶ cm/s
SMILES: CC(C)S(=O)(=O)c1c(Cl)ccc(Nc2nc(=O)cc(C(C)(C)C)[nH]2)c1O
